According to patent US9562043B2 (EA Pharma Co., Ltd., priority 2012, dated 2017):

Target: T1, human TRPA1 (Homo sapiens, UniProt O75762)
T1 construct: host or cells: human embryonic kidney-derived 293T cells, transient transfection with pcDNA3.1/zeo(+) plasmid
Experiment: Measurement of TRPA1 antagonist activity (intracellular calcium increase, FLIPR)
Type: cell-based
Details: 293T cells transfected with human TRPA1 expression plasmid, allylisothiocyanate 20 μM stimulation, calcium fluorescence, read-out: antagonism hTRPA1
Text: Measurement of TRPA1 Antagonist Activity
Human TRPA1 Expression Plasmid
As cDNA encoding human TRPA1 (GenBank accession No. […]), a commercially available product was purchased (manufactured by Kazusa DNA Research Institute, clone No.: pFN21AB7348, item No.: FHC07217). Using this as a template, full-length human TRPA1 gene was amplified using the primer sequences shown below, by reaction using DNA polymerase (manufactured by Stratagene, trade name: PfuUltra High-Fidelity DNA Polymerase).
A recognition site (underlined) of restriction enzyme HindIII was added to the 5′ side, and XbaI site (underlined) was added to the 3′ side, and GTT of the template sequence was changed to termination codon TAG (bold). The obtained double stranded DNA was enzyme-digested with HindIII and XbaI, and introduced into a multicloning site of expression plasmid pcDNA3.1/zeo(+) (manufactured by Invitrogen) to give a human TRPA1 expression plasmid.
Human embryonic kidney-derived 293T cells were cultured in Dulbecco's Modified Eagle Medium containing 10% fetal bovine serum, 10 unit penicillin, and 10 μg streptomycin, plated on a petri dish having a diameter of 10 cm at 3×10^6 cells, and cultured for 24 hr. A medium containing a reduced amount of serum (manufactured by Invitrogen, trade name: OPTI-MEM, 600 μL), a gene insertion reagent (manufactured by Mirus Bio, trade name: Mirus TransIT-293, 18 μL), and human TRPA1 expression plasmid (6 μg) were mixed, the total amount of the mixture was added to the cells on the petri dish to allow for gene transfer. The cells were recovered about 8 hr later, plated on a poly-D-lysine coated 384 well black/clear bottom plate at 7,500-12,000 cells/well, and cultured overnight.
Measurement of Intracellular Calcium Increase
The 384 well plate was recovered, and the medium was removed. A calcium-bonded fluorescent indicator (manufactured by Molecular Device, trade name: Calcium4 Assay Kit, 40 μL) dissolved in assay buffer (1×HBSS, 20 mM HEPES, pH 7.2) was added, and the cells were stained in a 37° C. incubator for 1 hr. The cells were taken out at room temperature and left standing for 15 min or more. A test substance (10 μL) was added by a 384 well type dispenser, and the mixture was incubated at room temperature for 10 min. Then, allylisothiocyanate (12.5 μL) at a final concentration of 20 μM was added by a fluorescence imaging plate reader (manufactured by Molecular Device, FLIPR), and changes in the relative fluorescence intensity were measured for 5 min.
Test Substance Preparation
The test substance was dissolved in dimethyl sulfoxide and serially diluted with an assay buffer containing 0.1% bovine serum albumin (1×HBSS, 20 mM HEPES, pH 7.2) to a 5-fold concentration of the evaluation concentration. Allylisothiocyanate, which is a known TRPA1 activator, was dissolved in dimethyl sulfoxide to 100 mM, and further diluted 5-fold (100 μM) of the final concentration, like the test substance.
Calculation of Antagonist Activity
Under the test substance-free conditions, the maximum variation range of the fluorescence intensity before and after allylisothiocyanate stimulation was defined to be 100% activity rate, and the variation range before and after buffer stimulation was defined as 0% activity rate. The activity rate on addition of the test substance was determined, and the numerical value obtained by subtracting the activity rate from 100 was defined to be an inhibitory rate. IC50, which is the concentration of the test substance necessary for reaching the 50% inhibitory rate, was calculated from the sigmoid approximate curve by a spreadsheet software Excel-Fit.

T1 sequence (O75762 whole entry): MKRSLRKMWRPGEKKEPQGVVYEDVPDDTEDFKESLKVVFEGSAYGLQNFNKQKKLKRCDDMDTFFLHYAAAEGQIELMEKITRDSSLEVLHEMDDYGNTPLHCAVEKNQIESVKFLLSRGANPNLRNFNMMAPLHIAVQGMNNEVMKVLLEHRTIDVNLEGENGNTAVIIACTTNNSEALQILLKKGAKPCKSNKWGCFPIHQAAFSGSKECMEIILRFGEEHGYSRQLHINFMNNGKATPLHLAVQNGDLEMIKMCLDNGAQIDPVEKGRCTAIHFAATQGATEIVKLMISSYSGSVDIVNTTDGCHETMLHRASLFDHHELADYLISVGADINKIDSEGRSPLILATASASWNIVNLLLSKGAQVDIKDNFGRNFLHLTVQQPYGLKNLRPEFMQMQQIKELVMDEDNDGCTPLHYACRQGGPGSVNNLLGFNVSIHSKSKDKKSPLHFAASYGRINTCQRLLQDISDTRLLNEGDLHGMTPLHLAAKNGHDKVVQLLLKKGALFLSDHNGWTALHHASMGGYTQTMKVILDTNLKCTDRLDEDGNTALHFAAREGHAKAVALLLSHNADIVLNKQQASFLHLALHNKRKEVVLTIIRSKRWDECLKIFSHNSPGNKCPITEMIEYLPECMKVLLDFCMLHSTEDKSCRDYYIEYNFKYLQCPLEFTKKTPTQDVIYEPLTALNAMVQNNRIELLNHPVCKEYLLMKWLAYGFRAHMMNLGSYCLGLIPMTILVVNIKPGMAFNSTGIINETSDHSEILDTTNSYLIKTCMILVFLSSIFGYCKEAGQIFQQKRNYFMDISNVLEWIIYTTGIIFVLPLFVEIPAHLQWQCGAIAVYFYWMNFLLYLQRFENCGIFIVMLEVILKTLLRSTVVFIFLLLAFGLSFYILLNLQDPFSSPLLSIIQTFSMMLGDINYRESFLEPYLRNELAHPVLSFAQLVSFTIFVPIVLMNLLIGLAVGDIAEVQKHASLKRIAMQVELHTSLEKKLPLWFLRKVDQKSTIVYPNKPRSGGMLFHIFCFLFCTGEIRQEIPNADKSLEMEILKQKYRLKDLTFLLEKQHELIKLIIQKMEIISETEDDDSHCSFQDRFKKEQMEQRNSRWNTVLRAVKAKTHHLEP

Structure (SMILES)	IC50 [nM]
O=C(NCc1nc(-c2ccc(C(F)(F)F)cc2)cs1)[C@@H]1CC(F)(F)CN1S(=O)(=O)c1ccc(Cl)s1 [compound 27, (2S)-1-(5-chlorothiophene-2-sulfonyl)-N-({4-[4-(trifluoromethyl)phenyl]-thiazol-2-yl}methyl)-4,4-difluoropyrrolidine-2-carboxamide]	960
O=C(NCc1nc(-c2ccc(C(F)(F)F)cc2)cs1)[C@@H]1C[C@@H](O)CN1S(=O)(=O)c1ccc(Cl)s1 [compound 28, (2S,4R)-1-(5-chlorothiophene-2-sulfonyl)-N-({4-[4-(trifluoromethyl)phenyl]-thiazol-2-yl}methyl)-hydroxypyrrolidine-2-carboxamide]	2690
O=C(NCc1nc(-c2ccc(C(F)(F)F)cc2)cs1)[C@@H]1CCN1S(=O)(=O)c1ccc(Cl)s1 [compound 31, (2S)-1-(5-chlorothiophene-2-sulfonyl)-N-({4-[4-(trifluoromethyl)phenyl]-thiazol-2-yl}methyl)azetidine-2-carboxamide]	750
O=C(NCc1nc(-c2ccc(OC(F)(F)F)cc2)cs1)[C@@H]1CCN1S(=O)(=O)c1ccc(Cl)s1 [compound 32, (2S)-1-[5-chlorothiophene-2-sulfonyl)-N-({4-[4-(trifluoromethoxy)phenyl]-thiazol-2-yl}methyl)azetidine-2-carboxamide]	2790
C[C@@]1(C(=O)NCc2nc(-c3ccc(OC(F)(F)F)cc3)cs2)CCCN1S(=O)(=O)c1ccc(Cl)s1 [compound 34, (2S)-1-(5-chlorothiophene-2-sulfonyl)-N-({4-[4-(trifluoromethoxy)phenyl]-thiazol-2-yl}methyl)-2-methylpyrrolidine-2-carboxamide]	890
C[C@H](NC(=O)[C@]1(C)CCCN1S(=O)(=O)c1ccc(Cl)s1)c1nc(-c2ccc(OC(F)(F)F)cc2)cs1 [compound 35, (2S)-1-(5-chlorothiophene-2-sulfonyl)-N-[(1S)-1-{4-[4-(trifluoromethoxy)phenyl]-thiazol-2-yl}ethyl]-2-methylpyrrolidine-2-carboxamide]	2500
O=C(NCc1nc(-c2ccc(C(F)(F)F)cc2)cs1)[C@@H]1CCCN1S(=O)(=O)c1cccs1 [compound 36, (2S)-1-(thiophene-2-sulfonyl)-N-({4-[4-(trifluoromethyl)-phenyl]thiazol-2-yl}methyl)pyrrolidine-2-carboxamide]	1790
O=C(NCc1nc(-c2ccc(C(F)(F)F)cc2)cs1)[C@@H]1CCCN1S(=O)(=O)c1ccc(F)cc1 [compound 37]	1000
O=C(NCc1nc(-c2ccc(C(F)(F)F)cc2)cs1)[C@@H]1CCCN1S(=O)(=O)c1ccc(Cl)cc1 [compound 38]	980
Cc1ccc(S(=O)(=O)N2CCC[C@H]2C(=O)NCc2nc(-c3ccc(C(F)(F)F)cc3)cs2)s1 [compound 41, (2S)-1-(5-methylthiophene-2-sulfonyl)-N-({4-[4-(trifluoro-methyl)phenyl]thiazol-2-yl}-methyl)pyrrolidine-2-carboxamide]	1900
O=C(NCc1nc(-c2ccc(C(F)(F)F)cc2)cs1)[C@@H]1CCCN1S(=O)(=O)c1ccc(Br)cc1 [compound 42, (2S)-1-(4-bromobenzene-2-sulfonyl)-N-({4-[4-(trifluoro-methyl)phenyl]thiazol-2-yl)-methyl)pyrrolidine-2-carboxamide]	1490
O=C(NCc1nc(-c2ccc(C(F)(F)F)cc2)cs1)[C@@H]1CCCN1S(=O)(=O)c1cccc(Cl)c1 [compound 43]	2700
O=C(NCc1nc(-c2ccc(C(F)(F)F)cc2)cs1)[C@@H]1CCCN1S(=O)(=O)c1ccccc1 [compound 47, (2S)-1-(benzenesulfonyl)-N-({4-[4-(trifluoromethyl)-phenyl]thiazol-2-yl}methyl)-pyrrolidine-2-carboxamide]	810
O=C(NCc1nc(-c2ccc(C(F)(F)F)cc2)cs1)[C@@H]1CCCN1S(=O)(=O)c1ccco1 [compound 48, (2S)-1-(2-furylsulfonyl)-N-({4-[4-(trifluoromethyl)-phenyl]thiazol-2-yl}methyl)-pyrrolidine-2-carboxamide]	990

The next lines start with the values.

IC50 [nM]	Structure (SMILES)
180	O=C(NCc1csc(-c2ccc(C(F)(F)F)cc2)n1)[C@@H]1C=CCN1S(=O)(=O)c1ccc(Cl)s1 [compound 26, (2S)-1-(5-chlorothiophene-2-sulfonyl)-N-({2-[4-(trifluoromethyl)phenyl]-thiazol-4-yl}methyl)-3,4-didehydropyrrolidine-2-carboxamide]
580	O=C(NCc1nc(-c2ccc(C(F)(F)F)cc2)cs1)[C@@H]1CSCN1S(=O)(=O)c1ccc(Cl)s1 [compound 29, (4R)-3-(5-chlorothiophene-2-sulfonyl)-N-({4-[4-(trifluoromethyl)phenyl]-thiazol-2-yl}methyl)-1,3-thiazolidine-4-carboxamide]
520	CC1(C)SCN(S(=O)(=O)c2ccc(Cl)s2)[C@@H]1C(=O)NCc1nc(-c2ccc(C(F)(F)F)cc2)cs1 [compound 30, (4R)-3-(5-chlorothiophene-2 sulfonyl)-N-({4-[4-(trifluoromethyl)phenyl]-thiazol-2-yl}methyl)-5,5-dimethyl-1,3-thiazolidine-4 carboxamide]
740	C[C@@]1(C(=O)NCc2nc(-c3ccc(C(F)(F)F)cc3)cs2)CCCN1S(=O)(=O)c1ccc(Cl)s1 [compound 33, (2S)-1-(5-chlorothiophene-2-sulfonyl)-N-({4-[4-(trifluoromethyl)phenyl]-thiazol-2-yl}methyl)-2-methylpyrrolidine-2-carboxamide]
200	O=C(NCc1nc(-c2ccc(C(F)(F)F)cc2)cs1)[C@@H]1CCCN1S(=O)(=O)c1ccc(Br)s1 [compound 39, (2S)-1-(5-bromothiophene-2-sulfonyl)-N-({4-[4-(trifluoromethyl)phenyl]thiazol-2-yl}methyl)pyrrolidine-2-carboxamide]
270	O=C(NCc1nc(-c2ccc(C(F)(F)F)cc2)cs1)[C@@H]1CCCN1S(=O)(=O)c1cc(Br)c(Cl)s1 [compound 40, (2S)-1-(4-bromo-5-chlorothiophene-2-sulfonyl) ({4-[4-{trifluoromethyl)-phenyl]thiazol-2-yl}methyl) pyrrolidine-2-carboxamide]
120	O=C(NCc1ccc(-c2ccc(OC(F)(F)F)cc2)s1)[C@@H]1CCCN1S(=O)(=O)c1ccc(Cl)s1 [compound 44, (2S)-1-(5-chlorothiophene-2-sulfonyl)-N-({5-[4-(trifluoro-methoxy)phenyl]-2-thienyl}methyl)pyrrolidine-2-carboxamide]
110	Cc1sc(-c2ccc(C(F)(F)F)cc2)nc1CNC(=O)[C@@H]1CCCN1S(=O)(=O)c1ccc(Cl)s1 [compound 45, (2S)-1-(5-chlorothiophene-2-sulfonyl)-N-({5-methyl-2-[4-(trifluoromethyl)phenyl]-thiazol-4-yl}methyl)-pyrrolidine-2-carboxamide]
570	O=C(NCc1nc(-c2ccc(C(F)(F)F)cc2)cs1)[C@@H]1CCCN1S(=O)(=O)c1ccc(Cl)nc1 [compound 46, (2S)-1-[(6-chloro-3-pyridyl)-sulfonyl]-N-({4-[4-(trifluoro-methyl)phenyl]thiazol-2-yl}-methyl)pyrrolidine-2-carboxamide]
340	O=C(NCc1nc(-c2ccc(C(F)(F)F)cc2)cs1)[C@@H]1CCCN1S(=O)(=O)c1ccsc1 [compound 49, (2S)-1-(3-thienylsulfonyl)-N-({4-[4-(trifluoromethyl)-phenyl)thiazol-2-yl}methyl)-pyrrolidine-2-carboxamide]
